From patent US20250163038A1, “CBL-B MODULATORS AND USES THEREOF” (Nimbus Clio, Inc., priority 2021, published 2025)

How the values were obtained:
[1] = molecular target: Recombinant human Cbl-b (aa 36-427) (Homo sapiens, UniProt Q13191); assay: Cbl-b Biochemical Assay (TR-FRET); conditions: read-out: TR-FRET hCbl-b IC50
[2] = molecular target: T1, Recombinant human c-Cbl (aa 47-435) (Homo sapiens, UniProt P22681); assay: c-Cbl Biochemical Assay (TR-FRET); conditions: hc-Cbl Biochemical Assay (TR-FRET); read-out: TR-FRET hcCbl IC50
T1 sequence (P22681 47-435): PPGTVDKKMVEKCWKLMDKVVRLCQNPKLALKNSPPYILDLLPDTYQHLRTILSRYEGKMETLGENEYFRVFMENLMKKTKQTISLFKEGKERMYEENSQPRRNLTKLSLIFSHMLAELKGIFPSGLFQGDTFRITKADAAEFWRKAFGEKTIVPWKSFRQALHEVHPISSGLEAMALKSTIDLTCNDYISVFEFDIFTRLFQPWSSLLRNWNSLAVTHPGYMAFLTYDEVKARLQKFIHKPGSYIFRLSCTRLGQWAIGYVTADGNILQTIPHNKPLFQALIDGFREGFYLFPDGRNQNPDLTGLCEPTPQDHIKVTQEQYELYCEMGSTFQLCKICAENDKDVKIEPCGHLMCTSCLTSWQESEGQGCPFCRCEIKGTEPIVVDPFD

Recombinant human Cbl-b (aa 36-427), sequence (Q13191 36-427): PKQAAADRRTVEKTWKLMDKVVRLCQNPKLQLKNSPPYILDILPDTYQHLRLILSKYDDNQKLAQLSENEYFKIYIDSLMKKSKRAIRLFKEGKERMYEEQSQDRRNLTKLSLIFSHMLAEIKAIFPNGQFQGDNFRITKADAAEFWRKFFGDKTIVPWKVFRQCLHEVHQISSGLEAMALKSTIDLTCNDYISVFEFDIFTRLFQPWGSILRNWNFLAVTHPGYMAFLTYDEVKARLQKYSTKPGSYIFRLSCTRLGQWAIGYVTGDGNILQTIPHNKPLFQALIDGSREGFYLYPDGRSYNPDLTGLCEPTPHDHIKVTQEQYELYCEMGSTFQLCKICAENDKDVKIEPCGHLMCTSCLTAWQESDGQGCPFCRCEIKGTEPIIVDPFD

SMILES	IC50 [1]	IC50 [2]
Cn1cnnc1-c1cnn(C)c1-c1cccc(-c2nc3cc(CN[C@H]4CCC[C@@H]4O)cc(C(F)(F)F)c3o2)c1 [AAU-6, (1S,2S)-2-(((2-(3-(1-Methyl-4-(4-methyl-4H-1,2,4-triazol-3-yl)-1H-pyrazol-5-yl)phenyl)-7-(trifluoromethyl)benzo[d]oxazol-5-yl)methyl)amino)cyclopentan-1-ol]	0.2 to 1 µM	10 to 50 µM
Cn1cnnc1CC1(c2cccc(-c3nc4cc(C(=O)N5CC[C@@H](O)C5)cc(C(F)(F)F)c4[nH]3)c2)COC1 [ABS-2, (R)-(3-Hydroxypyrrolidin-1-yl)(2-(3-(3-((4-methyl-4H-1,2,4-triazol-3-yl)methyl)oxetan-3-yl)phenyl)-7-(trifluoromethyl)-1H-benzo[d]imidazol-5-yl)methanone]	10 to 50 µM	10 to 50 µM
Cn1cnnc1-c1cc(F)ccc1-c1cccc(-c2nc3cc(CNCC(C)(C)O)ccc3[nH]2)c1 [BX-2, 1-(((2-(4′-Fluoro-2′-(4-methyl-4H-1,2,4-triazol-3-yl)-[1,1′-biphenyl]-3-yl)-1H-benzo[d]imidazol-5-yl)methyl)amino)-2-methylpropan-2-ol]	0.2 to 1 µM	10 to 50 µM
C=Cc1cc(C(F)(F)F)c2oc(-c3cccc(-c4ccc(F)cc4-c4nncn4C)c3)nc2c1 (racemic) [DL-1, 2-(4′-Fluoro-2′-(4-methyl-4H-1,2,4-triazol-3-yl)-[1,1′-biphenyl]-3-yl)-7-(trifluoromethyl)-5-vinylbenzo[d]oxazole]	0.2 to 1 µM	1 to 10 µM
CCNc1cc(-c2ccccc2-c2nncn2C)cc(-n2nc3c(C(F)(F)F)cccn3c2=O)n1 [AAO-4, 2-(6-(Ethylamino)-4-(2-(4-methyl-4H-1,2,4-triazol-3-yl)phenyl)pyridin-2-yl)-8-(trifluoromethyl)-[1,2,4]triazolo[4,3-a]pyridin-3(2H)-one]	10 to 50 µM	10 to 50 µM
CN1CC[C@@H](Oc2ccc3nc(-c4cccc(-c5ccccc5-c5nncn5C)c4)[nH]c3c2C(F)(F)F)C1 [BH-3, (R)-2-(2′-(4-Methyl-4H-1,2,4-triazol-3-yl)-[1,1′-biphenyl]-3-yl)-6-((1-methylpyrrolidin-3-yl)oxy)-7-(trifluoromethyl)-1H-benzo[d]imidazole]	10 to 50 µM	10 to 50 µM
Cn1cnnc1-c1ccccc1-c1cccc(-c2nc3cccc(C(F)(F)F)n3n2)c1 [ABU-2, 2-(2′-(4-Methyl-4H-1,2,4-triazol-3-yl)-[1,1′-biphenyl]-3-yl)-5-(trifluoromethyl)-[1,2,4]triazolo[1,5-a]pyridine]	10 to 50 µM	10 to 50 µM
Cn1cnnc1-c1cc(F)ccc1-c1cccc(-c2nc3ccc(CO)cc3o2)c1 [DC-3, (2-(4′-Fluoro-2′-(4-methyl-4H-1,2,4-triazol-3-yl)-[1,1′-biphenyl]-3-yl)benzo[d]oxazol-6-yl)methanol]	1 to 10 µM	10 to 50 µM
Cn1cnnc1CC1(c2cccc(-c3nc4cc(OCCN5CCCC5)cc(C(F)(F)F)c4[nH]3)c2)COC1 [ACJ-5, 2-(3-(3-((4-Methyl-4H-1,2,4-triazol-3-yl)methyl)oxetan-3-yl)phenyl)-5-(2-(pyrrolidin-1-yl)ethoxy)-7-(trifluoromethyl)-1H-benzo[d]imidazole]	10 to 50 µM	10 to 50 µM
CCNc1cc(-c2ccccc2-c2nncn2C)cc(-c2nc3cc(CO)cc(C(F)(F)F)c3[nH]2)n1 [AAN-3, {2-[6-(Ethylamino)-4-[2-(4-methyl-1,2,4-triazol-3-yl)phenyl]pyridin-2-yl]-7-(trifluoromethyl)-1H-1,3-benzodiazol-5-yl}methanol]	10 to 50 µM	10 to 50 µM
CC(Cc1nncn1C)c1cccc(-c2nc3ccc(OCCN4CCCC4)c(C(F)(F)F)c3[nH]2)c1 (stereo not drawn) [AX-3, 2-(3-(1-(4-Methyl-4H-1,2,4-triazol-3-yl)propan-2-yl)phenyl)-6-(2-(pyrrolidin-1-yl)ethoxy)-7-(trifluoromethyl)-1H-benzo[d]imidazole]	10 to 50 µM	10 to 50 µM
COc1cc(CO)cc2nc(-c3cccc([C@]4(c5nncn5C)C[C@@H](C)C4)c3)oc12 [AEB-1, (7-Methoxy-2-{3-[(1r,3s)-3-methyl-1-(4-methyl-1,2,4-triazol-3-yl)cyclobutyl]phenyl}-1,3-benzoxazol-5-yl)methanol]	1 to 10 µM	1 to 10 µM
COC(=O)c1cc(C(F)(F)F)c2oc(-c3cccc([C@]4(c5nncn5C)C[C@@H](C)C4)c3)nc2c1 [ADC-3, Methyl 2-(3-((1s,3s)-3-methyl-1-(4-methyl-4H-1,2,4-triazol-3-yl)cyclobutyl)phenyl)-7-(trifluoromethyl)benzo[d]oxazole-5-carboxylate]	1 to 10 µM	10 to 50 µM
Cn1cnnc1CC1(c2cccc(-c3nc4cc(C(=O)N5CCCC5)cc(C(F)(F)F)c4[nH]3)c2)COC1 [ABH-4, (2-(3-(3-((4-Methyl-4H-1,2,4-triazol-3-yl)methyl)oxetan-3-yl)phenyl)-7-(trifluoromethyl)-1H-benzo[d]imidazol-5-yl)(pyrrolidin-1-yl)methanone]	10 to 50 µM	10 to 50 µM

The remaining lines, values ahead:

IC50 [1]	IC50 [2]	SMILES
10 to 50 µM	10 to 50 µM	Cn1cnnc1-c1ccccc1-c1cccc(-c2cc(C(F)(F)F)c[nH]c2=O)c1 [ABV-1, 3-(2′-(4-Methyl-4H-1,2,4-triazol-3-yl)-[1,1′-biphenyl]-3-yl)-5-(trifluoromethyl)pyridin-2(1H)-one]
1 to 10 µM	1 to 10 µM	Cn1cnnc1-c1cc(F)ccc1-c1cc(-c2nc3cc(CO)ccc3[nH]2)nc(C2CC2)c1 [AEE-1, (2-(6-Cyclopropyl-4-(4-fluoro-2-(4-methyl-4H-1,2,4-triazol-3-yl)phenyl)pyridin-2-yl)-1H-benzo[d]imidazol-5-yl)methanol]
0.2 to 1 µM	10 to 50 µM	Cn1cnnc1-c1cc(F)ccc1-c1cccc(-c2nc3cccc(C(F)(F)F)c3[nH]2)c1 [BI-1, 2-(4′-Fluoro-2′-(4-methyl-4H-1,2,4-triazol-3-yl)-[1,1′-biphenyl]-3-yl)-7-(trifluoromethyl)-1H-benzo[d]imidazole]
10 to 50 µM	10 to 50 µM	Cn1cnnc1-c1ccccc1-c1cccc(-c2nc3cccc(C(F)(F)F)c3o2)c1 [Example K-2, 2-(2′-(4-Methyl-4H-1,2,4-triazol-3-yl)-[1,1′-biphenyl]-3-yl)-7-(trifluoromethyl)benzo[d]oxazole]
0.2 to 1 µM	1 to 10 µM	Cn1cnnc1-c1cc(F)ccc1-c1cccc(-c2nc3cccc(C(F)(F)F)c3o2)c1 [Example S-1, 2-(4′-Fluoro-2′-(4-methyl-4H-1,2,4-triazol-3-yl)-[1,1′-biphenyl]-3-yl)-7-(trifluoromethyl)benzo[d]oxazole]
0.2 to 1 µM	10 to 50 µM	Cn1cnnc1-c1ccccc1-c1cccc(-c2nc3cc(CN(C(=O)OC(C)(C)C)[C@@H]4CCC[C@H]4O)cc(C(F)(F)F)c3o2)c1 [Example M-5, tert-Butyl ((1R,2R)-2-hydroxycyclopentyl)((2-(2′-(4-methyl-4H-1,2,4-triazol-3-yl)-[1,1′-biphenyl]-3-yl)-7-(trifluoromethyl)benzo[d]oxazol-5-yl)methyl)carbamate]
0.2 to 1 µM	10 to 50 µM	C[C@@H]1CN(Cc2cc(C(F)(F)F)c3oc(-c4cccc(-c5ccccc5-c5nncn5C)c4)nc3c2)CCO1 [Example 0-4, (R)-2-(2′-(4-Methyl-4H-1,2,4-triazol-3-yl)-[1,1′-biphenyl]-3-yl)-5-((2-methylmorpholino)methyl)-7-(trifluoromethyl)benzo[d]oxazole]
